The results in this text go back to PMC3083228 (The Journal of Biological Chemistry, 2011).

The assay deals with T1, SpIH (Strongylocentrotus purpuratus, UniProt O76977).
T1 sequence (O76977 1-767): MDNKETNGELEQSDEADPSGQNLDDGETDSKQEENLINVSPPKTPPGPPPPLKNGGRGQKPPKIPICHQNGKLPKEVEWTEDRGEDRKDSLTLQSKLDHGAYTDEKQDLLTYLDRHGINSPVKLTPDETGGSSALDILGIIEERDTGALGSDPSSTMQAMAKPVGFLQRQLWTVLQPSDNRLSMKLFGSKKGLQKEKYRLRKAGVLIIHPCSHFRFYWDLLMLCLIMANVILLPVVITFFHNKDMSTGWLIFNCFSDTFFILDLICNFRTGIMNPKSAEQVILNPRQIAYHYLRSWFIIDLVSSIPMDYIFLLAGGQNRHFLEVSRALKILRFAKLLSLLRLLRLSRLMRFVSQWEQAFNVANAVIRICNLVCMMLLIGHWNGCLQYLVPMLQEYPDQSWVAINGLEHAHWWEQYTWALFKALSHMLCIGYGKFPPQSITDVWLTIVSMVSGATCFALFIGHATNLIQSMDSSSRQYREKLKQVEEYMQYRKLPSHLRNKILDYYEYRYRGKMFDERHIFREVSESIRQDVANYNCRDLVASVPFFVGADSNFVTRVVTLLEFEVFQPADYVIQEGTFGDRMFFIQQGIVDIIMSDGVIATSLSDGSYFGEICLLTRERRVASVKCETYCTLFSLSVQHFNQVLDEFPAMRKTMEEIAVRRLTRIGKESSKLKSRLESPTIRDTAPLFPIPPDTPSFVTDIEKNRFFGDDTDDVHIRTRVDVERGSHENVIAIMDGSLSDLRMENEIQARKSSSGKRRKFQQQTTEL
It is filed as cell-based.

What is called IC50 is the concentration that inhibits the measured activity by half.

The molecule `CCCCCCCC(=O)OC[C@H](COP(=O)(O)O[C@H]1[C@H](O)[C@@H](O)[C@H](OP(=O)(O)O)[C@@H](O)[C@H]1O)OC(=O)CCCCCCC` [diC8-PIP] displayed a half-inhibitory concentration (IC50) of 13.6 µM.
